Test system: patients with primary open angle glaucoma or ocular hypertension resistant to treatment with latanoprost ophthalmic solution
Assay: Clinical test: 0.002% (w/v) omidenepag isopropyl eye drop A in patients resistant to latanoprost ophthalmic solution
Assay type: in vivo, humans
Procedure: Examination was conducted on the efficacy of omidenepag isopropyl on patients with inadequate efficacies of other glaucoma or ocular hypertension therapeutic agents.
Omidenepag isopropyl, polyoxyl 35 castor oil, glycerin, citric acid, sodium citrate, sodium edetate, and benzalkonium chloride were dissolved into purified water to adjust the pH. Thereafter, purified water was added to adjust the total volume, thereby preparing a 0.002% (w/v) omidenepag isopropyl eye drop A.
Patients with primary open angle glaucoma or ocular hypertension were subjected to a washout period of 1 to 4 weeks, and then received a binocular instillation of 0.005% latanoprost ophthalmic solution in an amount of 1 drop once a day for 8 weeks as an induction phase (week −8 to baseline). The patients with primary open angle glaucoma (21 humans) or ocular hypertension (5 humans) resistant to treatment with latanoprost ophthalmic solution, whose rate of decrease in intraocular pressure from the start of instillation was 15% or less at the end of the induction phase, entered the treatment phase (baseline to week 4), and received a binocular instillation of the above-described 0.002% (w/v) omidenepag isopropyl eye drop A in an amount of 1 drop (about 0.03 mL) once a day for 4 weeks every day.

## CC(C)OC(=O)CNc1cccc(CN(Cc2ccc(-n3cccn3)cc2)S(=O)(=O)c2cccnc2)n1 [omidenepag isopropyl, isopropyl (6-{[4-(pyrazol-1-yl)benzyl](pyridin-3-ylsulfonyl)aminomethyl}pyridin-2-ylamino)acetate]
  intraocular pressure lowering compared with latanoprost instillation: lowers intraocular pressure to a greater extent than latanoprost instillation
